Reference: patent publication US20040142933A1, “Oxindole substituted piperazine derivatives” (priority 2002, published 2004)

Key:
[1] = target: T1, dopamine D2 receptor (Homo sapiens, UniProt P14416); test: Dopamine D2 receptor binding, [3H]spiperone, CHO-hD2L cell membranes; conditions: [3H]spiperone 0.4 nM
T1 construct: expressed in transfected cells; host or cells: CHO cells (CHO-hD2L)
Excerpt: (§1) The ability of the compounds of this invention to bind to the dopamine D2 and serotonin 2A (5HT2A) receptors can be determined using conventional radioligand receptor binding assays. All receptors can be heterologously expressed in cell lines and experiments conducted in membrane preparations from the cell lines using procedures outlined below. IC50 concentrations can be determined by nonlinear regression of concentration-dependent reduction in specific binding. The Cheng-Prussoff equation can be used to convert the IC50 to Ki concentrations.
Dopamine D2 Receptor Binding:
[^3H]Spiperone binding to a membrane preparation from CHO-hD2L cells is carried out in 250 μl of 50 mM Tris-HCl buffer containing 100 mM NaCl, 1 mM MgCl2 and 1% DMSO at pH 7.4. Duplicate samples containing (in order of addition) the test compounds, 0.4 nM [^3H]spiperone and approximately 12 μg protein are incubated for 120 minutes at room temperature. Bound radioligand is separated by rapid filtration under reduced pressure through Whatman GF/B glass fiber filters previously treated with 0.3% polyethyleneimine. Radioactivity retained on the filter is determined by liquid scintillation spectrophotometry.
The title compounds of Examples 1-14 were tested using the above assay, in which specific binding determined in the presence of 1 mM haloperidol was 95%.

[2] = target: T2, serotonin 2A (5HT2A) receptor (Homo sapiens, UniProt P28223); test: Serotonin 2A binding, [3H]ketanserin, Swiss-h5HT2A cell membranes; conditions: [3H]ketanserin 1.0 nM
T2 construct: expressed in transfected cells; host or cells: Swiss cells (Swiss-h5HT2A)
T2 sequence (P28223 whole entry): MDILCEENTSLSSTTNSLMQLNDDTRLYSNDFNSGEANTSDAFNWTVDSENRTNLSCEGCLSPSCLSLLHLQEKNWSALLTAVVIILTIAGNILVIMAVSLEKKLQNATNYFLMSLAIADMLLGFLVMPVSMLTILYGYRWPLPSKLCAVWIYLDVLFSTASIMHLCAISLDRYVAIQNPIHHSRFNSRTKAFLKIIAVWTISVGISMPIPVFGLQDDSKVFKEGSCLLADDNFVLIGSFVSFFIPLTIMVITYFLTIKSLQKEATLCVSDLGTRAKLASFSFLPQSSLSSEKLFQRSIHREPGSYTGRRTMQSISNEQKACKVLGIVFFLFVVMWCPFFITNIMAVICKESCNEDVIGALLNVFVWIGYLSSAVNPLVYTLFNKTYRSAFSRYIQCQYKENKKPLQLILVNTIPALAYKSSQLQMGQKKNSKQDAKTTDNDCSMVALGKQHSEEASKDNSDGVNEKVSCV
Excerpt: as §1
[^3H] Ketanserin binding to Swiss-h5HT2A cell membranes can be carried out in 250 μl of 50 mM Tris-HCl buffer pH 7.4. Duplicate samples containing (in order of addition) test compounds, 1.0 nM [^3H]ketanserin, and approximately 75 μg protein are incubated for 120 minutes at room temperature. Bound radioligand is separated by rapid filtration under reduced pressure through Whatman GF/B glass fiber filters previously treated with 0.3% polyethyleneimine. Radioactivity retained on the filter is determined by liquid scintillation spectrophotometry.
The title compounds of Examples 1-14 were tested using the above assay, in which specific binding determined in the presence of 1 mM ketanserin was 90%.

T1 sequence (P14416 whole entry): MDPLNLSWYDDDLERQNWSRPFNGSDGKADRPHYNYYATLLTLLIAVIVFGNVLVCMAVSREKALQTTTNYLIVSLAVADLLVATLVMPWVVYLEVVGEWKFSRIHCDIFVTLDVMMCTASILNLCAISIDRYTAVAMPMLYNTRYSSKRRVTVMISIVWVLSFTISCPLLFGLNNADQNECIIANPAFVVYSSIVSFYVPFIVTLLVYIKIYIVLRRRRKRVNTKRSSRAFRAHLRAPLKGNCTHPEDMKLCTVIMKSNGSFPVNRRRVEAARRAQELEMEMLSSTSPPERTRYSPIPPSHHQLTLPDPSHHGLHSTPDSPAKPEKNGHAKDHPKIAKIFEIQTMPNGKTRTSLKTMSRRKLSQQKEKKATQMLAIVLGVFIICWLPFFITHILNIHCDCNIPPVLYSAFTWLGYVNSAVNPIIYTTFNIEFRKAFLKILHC

Ki [1] [nM]	Ki [2] [nM]	Compound
14.7	0.75	CC(C)=C1C(=O)N(C)c2ccc(CCN3CCN(c4nsc5ccccc45)CC3)cc21 [Example 1, 5-[2-(4-1,2-benzisothiazol-3-yl-piperazin-1-yl)-ethyl]-3-isopropylidene-1-methyl-1,3-dihydro-indol-2-one]
49.4		CC(C)=C1C(=O)Nc2ccc(CCCN3CCN(c4noc5ccccc45)CC3)cc21 [Example 4, 5-[3-(4-1,2-Benzisoxazol-3-yl-piperazin-1-yl)-propyl]-3-isopropylidene-1,3-dihydro-indol-2-one]
1.3	8.4	CC(C)=C1C(=O)Nc2cc(Cl)c(CCN3CCN(c4nsc5ccccc45)CC3)cc21 [Example 5, 5-[2-(4-1,2-benzisothiazol-3-yl-piperazin-1-yl)-ethyl]-6-chloro-3-isopropylidene-1,3-dihydro-indol-2-one]
	7.45	CC1(C)CC12C(=O)Nc1cc(Cl)c(CCCN3CCN(c4nsc5ccccc45)CC3)cc12 (stereo not drawn) [Example 14, Spiro[cyclopropane-1,3′-{3H}indol]-2′(1′H)-one,5′-[3-[4-{1,2-benzisothiazol-3-yl}-1-piperazinyl]propyl]-6′-chloro-2,2-dimethyl—]
